Data published in a melting point compilation (Tetko et al.; mined from patent text by program, amines drawn as free bases though some values may be those of a salt).

SMILES	melting point [°C]
NC1=NN(c2nc3ccccc3s2)C(c2ccc(Cl)cc2)C1 (stereo not given)	273 to 275
O=C(C1CC2(CCN1)OCCO2)N1CCCC1 (stereo not given)	72.5 to 74.5
O=C1NC(=O)C(=Cc2ccc(N3CCC(NC[C@H](O)COc4cccc5[nH]c(=O)[nH]c45)CC3)c(F)c2)S1	162 to 164
Cc1ccc2c(c1C)OC(=O)C2c1ccc(C(C)C)cc1 (stereo not given)	58 to 60
CNc1ccccc1C(=O)CCl	65 to 68
Cc1ccc(C(C)(C)C)c(O)c1-c1nc2cc(S(=O)(=O)C(F)(F)F)ccc2[nH]1	218 to 220
CCC(=O)N1Cc2cc(OC)ccc2C(Cc2c(Cl)cncc2Cl)=N1	195 to 197
O=C(O)c1ccc(-c2cccc([N+](=O)[O-])c2)[nH]c1=O	303 to 304
Cc1cccc(-n2nc(C)cc2-c2ccnc(N(C)C)c2)c1	84 to 85
CC(=O)Nc1ccc(C2=NC(C)(C)C(c3ccncc3)C2)cc1 (stereo not given)	222 to 225
O=[N+]([O-])c1ccccc1NN=Cc1ncc(C(F)(F)F)cc1Cl	127 to 135
CS(=O)(=O)c1ccc(-c2cc(O)sc2-c2ccc(F)cc2)cc1	60
COCOc1c(Cl)ccc(-c2cc(NC(C)=O)c(Cl)c(C(=O)OC)n2)c1F	146
CCOCN(C(=O)CCl)c1c(OC)cccc1OC	95 to 97
COc1ccc([C@@H]2Sc3cc(Cl)ccc3N(CCN(C)C(=O)OCc3ccccc3)C(=O)[C@@H]2O)cc1	108
COc1cc(NC(=O)Nc2ccc(Oc3ccncc3)cc2)cc(C(F)(F)F)c1	162 to 164
Cc1ccc(S(=O)(=O)OC2CCN(S(=O)(=O)c3ccc(C)cc3)CC2)cc1	137 to 140
O=Cc1cc(O)c(O)c(C=O)c1	192 to 195
CNC(=S)NCCCCc1c[nH]c(NC(=N)N)n1	179 to 184
N=C(Nc1ccc(CCNCc2ccccc2Cl)cc1)c1cccs1	81 to 82
[N-]=[N+]=NC(=O)c1cn(C2CCN(Cc3ccccc3)C2)nn1 (stereo not given)	160
Clc1ccc(-c2cc(C3CCN(CCc4ccccc4)CC3)n[nH]2)cc1	169 to 171
COCCn1c2cc(OCCCO)c(OC)cc2c2c3c(c(-c4ccccc4Cl)cc21)C(=O)NC3=O	251 to 257
C=C1C(=C)C2OC1c1cc3cccc(OC)c3cc12 (stereo not given)	154 to 155

SMILES	melting point [°C]
CCc1ccccc1-c1nc(-c2cccc(OC)c2)nn1C(=O)Nc1ccc(C)cc1	141 to 142
Cc1cc(-n2ccnc2)c2cccc(OCc3c(Cl)ccc(S(=O)(=O)N4CCC[C@H]4CO)c3Cl)c2n1	76
CN(C)C(=O)C1CC(c2ccc(-c3ccc(N4C[C@H](Cn5ccnn5)OC4=O)cc3F)cn2)=NO1 (stereo not given in full)	180 to 190
O=c1[nH]ncc2[nH]c(-c3ccc(OC(F)F)c(OCC4CC4)c3)cc12	294 to 295
NS(=O)(=O)c1cc(C(=O)O)cc(N2CCCC2=O)c1Oc1ccccc1	282 to 285
COc1cccc(-c2nc(Cl)nc(Nc3cccc([N+](=O)[O-])c3)n2)c1	155
Nc1sc(-c2cc(F)cc(F)c2)c(CN(C2CCCCC2)C2CCCCC2)c1C(=O)c1ccc(Cl)cc1	163 to 166
Cc1ccc(C(=O)Nc2ccc(CN3CCOCC3)c(C(F)(F)F)c2)cc1-c1ccc2cnncc2c1	147 to 151
CN(C)c1n[nH]c(-c2ccc(F)cc2)c1-c1ccncc1	245 to 247
O=C(O)c1cn(C2CC2)c2c(F)c(N3CCC(n4cncn4)C3)c(F)cc2c1=O (stereo not given)	220 to 221
CCOC(=O)c1c(Cl)c2cc(Cl)cnc2[nH]c1=O	228
NC(=O)Cc1cc(Oc2ccc3c(ccn3C(=O)Nc3ccc(CN4CCOCC4)c(C(F)(F)F)c3)c2)ncn1	219 to 221
COC(=O)c1cccc2[nH]c(=O)c(-c3csc(-c4ccncc4)n3)cc12	> 250
Nc1ccc(F)cc1-c1nc[nH]n1	142 to 144
CC(O)c1cccc(OCc2cccc(C(=O)O)c2)c1 (stereo not given)	115 to 117
COc1ccc2nc(-c3ccc4c(c3)NC(=O)C4(C)C)[nH]c2c1	85 to 90
COC(=O)C1=C(C)N=C(OC)N(C(=O)NCCCC(=O)OC(C)(C)C)C1c1ccc(F)cc1 (stereo not given)	135 to 138
Clc1c(Cl)c(Cl)c(CI)c(Cl)c1Cl	138 to 140
CCNCC1CCN(c2nc3c(cc2F)c(=O)c(C(=O)O)cn3CC)C1 (stereo not given)	230 to 232
FC(F)c1cccc(C=C2c3ccccc3CCc3ccccc32)c1	92.5
O=C1C=CC(OC2CCCCC2)N1S(=O)(=O)c1ccccc1 (stereo not given)	104 to 106
CCCCc1cc2ccccc2c(Oc2ccc(/C=C/C(=O)O)cc2)c1-c1ccc(O)cc1	107 to 109
CC(C)(C)[Si](C)(C)Oc1ccc(CON2C(=O)c3ccccc3C2=O)cc1	76 to 77
C[C@@H](N)CN(c1ccccn1)S(=O)(=O)O	176 to 179

SMILES	melting point [°C]
CS(=O)(=O)N(C(=O)c1cc(Oc2ccc(C(F)(F)F)cc2Cl)ccc1[N+](=O)[O-])C(=O)c1cc(Oc2ccc(C(F)(F)F)cc2Cl)ccc1[N+](=O)[O-]	166 to 168
COc1ccc(-c2nc(N)n3nc(-c4ccco4)nc3n2)cc1	> 275
Cc1nc2ccc3c(c2o1)C(CCNC(=O)C(F)(F)F)CC3 (stereo not given)	104 to 106
CC1CC(C)(C)NC(c2ccccc2)=N1 (stereo not given)	86 to 87
CC(=O)Nc1ccc(C=CC(=O)O)c(NC(=O)NC(=O)c2cc(F)c(F)cc2Cl)c1	196
O=C(O)c1ccc(F)cc1Sc1ccccc1	193 to 200
NC(=O)n1ccc(-c2ccc(Oc3ccc(F)cc3)cc2)n1	141 to 143
CS(=O)(=O)c1nnc(F)s1	65
CCCCCCCCOc1ccc(-c2nnn[nH]2)c(O)c1	142 to 146
O=C(Nc1cccc(C(F)(F)F)c1)Nc1ccc(OCc2ccccc2)cc1O	184 to 185
O=C1Nc2cccnc2N(C(=O)NCCN2CCCCC2CN2CCCC2)c2ccccc21 (stereo not given)	198
COc1ccc(C(C#Cc2cccc(-c3nnc(C)o3)c2)CC(=O)O)cc1OC1CCCC1 (racemic)	110 to 114
COc1ccc(CNc2nc(Cl)ccc2C(=O)O)cc1Cl	184 to 186
CC(=O)Nc1ccc(OCC(O)CN2CCC(NC(=O)c3ccccc3)CC2)cc1 (stereo not given)	226 to 228
FC(F)(F)C(/C=C/c1ccc(CNc2ccccn2)c(Cl)c1)c1cc(Cl)c(Cl)c(Cl)c1 (stereo not given)	140 to 142
COc1ccc(C(C#Cc2ccccc2)CC(N)=O)cc1OC1CCCC1 (racemic)	142 to 144
CCN(CC)CCNC(=O)c1cc(I)cc2cc3ccccc3nc12	108 to 110
CC(CN1CCC(NC(=O)C2CC2)CC1)c1ccc(C(=O)c2ccccc2)cc1 (stereo not given)	159 to 160
Nc1nc2c(C(CC(=O)O)C3CCCCC3)c[nH]c2c(=O)[nH]1 (stereo not given)	> 300
CC1(C)OCCc2nc(-c3ccccc3)sc21	65 to 66
CC(=O)OC1CSC(Oc2ccccc2-c2ccncc2)C(OC(C)=O)C1OC(C)=O (stereo not given)	165
Cn1ncc2[nH]c3ccc(Cc4ccccc4C(N)=O)cc3c(=O)c21	272
